These results are taken from patent US20250099431A1, “GLP-1R MODULATING COMPOUNDS” (priority 2020, published 2025).

In data set [1] the target is GLP-1R (Homo sapiens (Human), UniProt P43220). Put plainly: GLP-1R activation: cAMP increase in CHO cells stably expressing GLP-1R. The conditions noted are these: cAMP increase, 10 point dose response, 30 minutes incubation at 37° C., read-out: EC50. In kind it is cell-based. The protocol:
GLP-1R activation by a compound of the present disclosure was quantified by measuring cAMP increase in CHO cells stably expressing GLP-1R (MultiSpan product #C1267-1a). […] The cells were then incubated overnight at 37° C., 5% CO2. […] 1% BSA (Rockland Immunochemicals product #BSA-1000)). Following the medium change, the cells were incubated for 1 hour at 37° C., 5% CO2. The tested GLP-1 compound was added to the cells in a 10 point dose response followed by a 30 minutes incubation at 37° C., 5% CO2. cAMP concentration increase was then detected using Cisbio's cAMP Gs Dynamic Kit (product #62AM4PEC) according to the manufacturer's protocol. The response was plotted against the log of the agonist concentration and fitted to a sigmoidal equation to determine the EC50.

A short description of data set [2]: Microsomal stability (liver microsomal assay, mixed cofactors); predicted hepatic clearance. Type of data set: in vitro ADME. As to conditions: liver microsomes 1.0 mg protein/mL (+UDPGA +NADPH), 1 μM analyte, 37° C.; scaled with human liver weight and hepatic blood flow 1.3 L/hr/kg. On the procedure: Metabolic stability of compounds was assessed using human or rat liver microsomal assays (Corning). In these assays, 10 nL of each analyte at a concentration of 1 mM in 100% DMSO was dispensed into a well of a polypropylene plates using the Echo 550 acoustic liquid dispenser (Labcyte®). Each plate contained 384 wells with a single analyte in each well.
A solution of human (Corning® Gentest™ Human Mixed Pooled Microsomes or rat (Corning® Gentest™ Rat [Sprague-Dawley] Pooled Liver Microsomes) liver microsomes at 2 mg/ml in 100 mM K2HPO4/KH2PO4 at pH 7. 4 was combined with alamethicin from Trichoderma viride (Sigma-Aldrich) 0.0225 mg/ml. The mixture was incubated on ice for 15 minutes. 5 μL of this mixture was added to individual wells following a 15 minute incubation at room temperature and supplemented with 5 μL NADPH Regenerating Solution of cofactors (Corning® Gentest™ UGT Reaction Mix) containing 100 mM K2HPO4/KH2PO4 at pH 7.4, 2.6 mM NADP+, 6.6 mM glucose-6-phosphate, 6.6 mM MgCl2, 0.8 U/mL glucose-6-phosphate dehydrogenase, 0.1 mM sodium citrate, and 6.8 mM uridine diphosphate-glucuronic acid. The final concentration of each analyte compound at the beginning of the reaction was 1 μM. The reactions were incubated at 37° C. and samples were collected at time points of 0, 5, 15, 30, 40, 50, 60, and 70 minutes for further analysis. Background data were collected using reactions without analyte compounds.
Upon collection of the sample time points, samples were quenched with 30 μL of a solution of 72% acetonitrile, 8% methanol, 0.1% formic acid, 19.9% water, and internal standard (IS). Reaction plates were spun in a centrifuge at speed of 4,000 rcf for 30 minutes at 4° C., following a dilution of the 10 μL quenched reaction into 40 μL de-ionized water, yielding assay plates.
Assay plates were analyzed using solid-state extraction coupled with quadrupole time-of-flight mass spectrometer, using Agilent QToF 6530 RapidFire 360 system, with C4 type A solid state cartridges. Analysis was performed in either positive or negative ionization modes. Mobile phases contained 0.1% formic acid in water for loading analytes onto solid state extraction cartridges and 0.1% formic acid in acetonitrile for elution into a mass spectrometer in positive ionization mode, or 0.1% acetic acid in water for loading and 0.1% acetic acid in acetonitrile for extraction in negative ionization mode. Peak-area ratios of integrated counts for individual compounds to IS were plotted as semi-logarithmic chart of log vs time. The initial linear portion of decay was fitted to a linear regression equation to derive the half-time of analyte decay.
Pharmacological parameters for an analyte compound metabolism were calculated using the following equations: […]
wherein concentration refers to the protein concentration (mg/ml) in the reaction.
This scales the in vitro intrinsic clearance up to the value that would be predicted for the entire mass of liver tissue (but with no restriction by blood flow). The value depends upon the size of the liver (species-dependent) and the yield of microsomal protein as appropriate (assumed to be species-independent).
Hepatic clearance will depend upon the inter-relationship of intrinsic clearance and hepatic blood flow and was predicted from in vitro data using a variety of approaches.
The hepatic extraction is reported as the predicted clearance expressed as a proportion of hepatic blood flow.

GLP-1R, sequence (P43220 24-463): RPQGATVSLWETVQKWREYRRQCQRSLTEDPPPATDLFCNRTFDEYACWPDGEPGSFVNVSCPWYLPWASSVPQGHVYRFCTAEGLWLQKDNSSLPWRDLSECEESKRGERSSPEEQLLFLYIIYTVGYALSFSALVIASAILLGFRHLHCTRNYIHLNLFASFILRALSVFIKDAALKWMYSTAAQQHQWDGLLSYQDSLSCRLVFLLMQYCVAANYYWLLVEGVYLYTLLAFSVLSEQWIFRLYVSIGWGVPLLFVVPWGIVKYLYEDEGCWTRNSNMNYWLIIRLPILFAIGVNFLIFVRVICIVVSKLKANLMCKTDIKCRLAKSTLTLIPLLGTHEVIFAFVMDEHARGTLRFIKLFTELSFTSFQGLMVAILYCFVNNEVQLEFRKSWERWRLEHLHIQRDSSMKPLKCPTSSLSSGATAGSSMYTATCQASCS

Regarding `CC1(c2ccc(Cl)cc2F)Oc2cccc(-c3cc(F)c(Cc4nc5c(F)cc(C(=O)O)cc5n4CC4(CC#N)CC4)c(F)c3)c2O1` (single isomer, unassigned) [Example 105, 2-(4-(2-(4-chloro-2-fluorophenyl)-2-methylbenzo[d][1, 3]dioxol-4-yl)-2,6-difluorobenzyl)-1-((1-(cyanomethyl)cyclopropyl)methyl)-4-fluoro-1H-benzo[d]imidazole-6-carboxylic acid], in data set [1], the 50% effective concentration (EC50) was found to be 2.6 nM. Also, the “Predicted Hepatic Clearance (Pred. Cl.)” value in data set [2] is 1.83 mL/min/kg.

On to `O=C(O)c1ccc2nc(Cc3c(F)cc(-c4cccc5c4CN(c4ccc(Cl)cc4F)C5=O)cc3F)n(C[C@@H]3CCO3)c2c1` [Example 73, (S)-2-(4-(2-(4-chloro-2-fluorophenyl)-1-oxoisoindolin-4-yl)-2,6-difluorobenzyl)-1-(oxetan-2-ylmethyl)-1H-benzo[d]imidazole-6-carboxylic acid], for which, in data set [1], the half-maximal effective concentration (EC50) amounted to 10000 nM. Besides, in data set [2], the “Predicted Hepatic Clearance (Pred. Cl.)” value was 2.5 mL/min/kg.

In the case of `COCCn1c(Cc2c(F)cc(-c3cccc4c3OC(c3ccc(C#N)cc3F)O4)cc2F)nc2ccc(C(=O)O)cc21` (single isomer, unassigned) [Example 38, 2-(4-(2-(4-cyano-2-fluorophenyl)benzo [d][1,3]dioxol-4-yl)-2,6-difluorobenzyl)-1-(2-methoxyethyl)-1H-benzo[d]imidazole-6-carboxylic acid], the EC50 in data set [1] amounted to 37 nM. Also, the “Predicted Hepatic Clearance (Pred. Cl.)” value in data set [2] is 4 mL/min/kg.

As for `COCCn1c(Cc2cc(F)c(-c3c(F)ccc4c3OC(C)(c3ccc(Cl)cn3)O4)cc2F)nc2ccc(C(=O)O)cc21` (stereo not drawn) [Example 101, 2-(4-(2-(5-chloropyridin-2-yl)-5-fluoro-2-methylbenzo[d][1, 3]dioxol-4-yl)-2,5-difluorobenzyl)-1-(2-methoxyethyl)-1H-benzo[d]imidazole-6-carboxylic acid], the EC50 in data set [1] was found to be 160 nM. Also, the “Predicted Hepatic Clearance (Pred. Cl.)” value in data set [2] is 11.8 mL/min/kg.

Regarding `COCCn1c(Cc2c(F)cc(-c3cccc4c3O[C@@](C)(c3ccc(Cl)cc3F)O4)cc2F)nc2ccc(C(=O)O)cc21` [Example 102, 2-(4-(2-(4-chloro-2-fluorophenyl)-2-methylbenzo[d][1, 3]dioxol-4-yl)-2,6-difluorobenzyl)-1-(2-methoxyethyl)-1H-benzo[d]imidazole-6-carboxylic acid], the EC50 in data set [1] was found to be 65 nM. For the same compound, the “Predicted Hepatic Clearance (Pred. Cl.)” value in data set [2] was 3.17 mL/min/kg.

As to `COCCn1c(Cc2ccc(-c3cccc4c3OC(c3ccc(C#N)cc3F)O4)cc2F)nc2ccc(C(=O)O)cc21` (single isomer, unassigned) [Example 33, 2-(4-(2-(4-cyano-2-fluorophenyl)benzo [d][1,3]dioxol-4-yl)-2-fluorobenzyl)-1-(2-methoxyethyl)-1H-benzo[d]imidazole-6-carboxylic acid], the EC50 in data set [1] stood at 53 nM. Besides, the “Predicted Hepatic Clearance (Pred. Cl.)” value in data set [2] was 2.67 mL/min/kg.

`COCCn1c(Cc2c(F)cc(-c3cccc4c3OC(C)(c3ccc(C#N)cc3F)O4)cc2F)nc2ccc(C(=O)O)cc21` (single isomer, unassigned) [Example 98, 2-(4-(2-(4-cyano-2-fluorophenyl)-2-methylbenzo[d][1, 3]dioxol-4-yl)-2,6-difluorobenzyl)-1-(2-methoxyethyl)-1H-benzo[d]imidazole-6-carboxylic acid]: the EC50 in data set [1] worked out at 67 nM. Besides, in data set [2], the “Predicted Hepatic Clearance (Pred. Cl.)” value was 3.5 mL/min/kg.

Consider `CC1(c2ccc(Cl)cn2)Oc2cccc(-c3cc(F)c(Cc4nc5ccc(C(=O)O)cc5n4C[C@@H]4CCO4)c(C#N)c3)c2O1` (stereo partly drawn) [Example 74, 2-(4-(2-(5-chloropyridin-2-yl)-2-methylbenzo[d][1, 3]dioxol-4-yl)-2-cyano-6-fluorobenzyl)-1-(((S)-oxetan-2-yl)methyl)-1H-benzo[d]imidazole-6-carboxylic acid], for which, in data set [1], the half-maximal effective concentration (EC50) was found to be 1.7 nM. For the same compound, the “Predicted Hepatic Clearance (Pred. Cl.)” value in data set [2] is 7.67 mL/min/kg.

Turning to `CC1(c2ccc(Cl)cn2)Oc2cccc(-c3cc(F)c(Cc4nc5ccc(C(=O)O)cc5n4C[C@@H]4CCO4)cc3F)c2O1` (stereo partly drawn) [Example 29, 2-(4-(2-(5-chloropyridin-2-yl)-2-methylbenzo[d][1, 3]dioxol-4-yl)-2,5-difluorobenzyl)-1-(((S)-oxetan-2-yl)methyl)-1H-benzo[d]imidazole-6-carboxylic acid], the EC50 in data set [1] is 0.076 nM. For the same compound, the “Predicted Hepatic Clearance (Pred. Cl.)” value in data set [2] is 4.67 mL/min/kg.

As for `CC1(c2ccc(Cl)cc2F)Oc2cccc(-c3ccc(Cc4nc5ccc(C(=O)O)cc5n4C[C@@H]4CCO4)cc3F)c2O1` (stereo partly drawn) [Example 15, 2-(4-(2-(4-chloro-2-fluorophenyl)-2-methylbenzo[d][1, 3]dioxol-4-yl)-3-fluorobenzyl)-1-(((S)-oxetan-2-yl)methyl)-1H-benzo[d]imidazole-6-carboxylic acid], the concentration for a half-maximal effect (EC50) in data set [1] was 0.015 nM. Moreover, the “Predicted Hepatic Clearance (Pred. Cl.)” value in data set [2] was 4.5 mL/min/kg.

As for `O=C(O)c1ccc2nc(Cc3c(F)cc(-c4cccc5c4C(=O)N(c4ccc(Cl)cc4F)C5)cc3F)n(C[C@@H]3CCO3)c2c1` [Example 72, (S)-2-(4-(2-(4-chloro-2-fluorophenyl)-3-oxoisoindolin-4-yl)-2,6-difluorobenzyl)-1-(oxetan-2-ylmethyl)-1H-benzo[d]imidazole-6-carboxylic acid], in data set [1], the EC50 was 10000 nM. For the same compound, in data set [2], the “Predicted Hepatic Clearance (Pred. Cl.)” value is 3.67 mL/min/kg.

As to `COCCn1c(Cc2ccc(-c3cccc4c3OC(c3ccccc3)O4)cc2F)nc2ccc(C(=O)O)cc21` (stereo not drawn) [Example 32, 2-(2-fluoro-4-(2-phenylbenzo[d][1, 3]dioxol-4-yl)benzyl)-1-(2-methoxyethyl)-1H-benzo[d]imidazole-6-carboxylic acid], in data set [1], the EC50 is 1920 nM. Also, the “Predicted Hepatic Clearance (Pred. Cl.)” value in data set [2] was 6.33 mL/min/kg.

For the compound `CC1(c2ccc(Cl)cc2F)Oc2cccc(-c3cc(F)c(Cc4nc5c(F)cc(C(=O)O)cc5n4CC4(CC#N)CC4)c(F)c3)c2O1` (single isomer, unassigned) [Example 106, 2-(4-(2-(4-chloro-2-fluorophenyl)-2-methylbenzo[d][1, 3]dioxol-4-yl)-2,6-difluorobenzyl)-1-((1-(cyanomethyl)cyclopropyl)methyl)-4-fluoro-1H-benzo[d]imidazole-6-carboxylic acid], the 50% effective concentration (EC50) in data set [1] worked out at 0.64 nM. Further, the “Predicted Hepatic Clearance (Pred. Cl.)” value in data set [2] was 15.2 mL/min/kg.

On to `COCCn1c(Cc2c(F)cc(-c3cccc4c3OC(C)(c3ccc(C#N)cc3F)O4)cc2F)nc2ccc(C(=O)O)cc21` (stereo not drawn) [Example 89, 2-(4-(2-(4-cyano-2-fluorophenyl)-2-methylbenzo[d][1, 3]dioxol-4-yl)-2,6-difluorobenzyl)-1-(2-methoxyethyl)-1H-benzo[d]imidazole-6-carboxylic acid], for which the EC50 in data set [1] was found to be 15 nM. Moreover, in data set [2], the “Predicted Hepatic Clearance (Pred. Cl.)” value is 6.17 mL/min/kg.

For the compound `COCCn1c(Cc2cc(F)c(-c3cccc4c3OC(C)(c3ccc(C#N)cc3F)O4)cc2F)nc2c(F)cc(C(=O)O)cc21` (stereo not drawn) [Example 62, 2-(4-(2-(4-cyano-2-fluorophenyl)-2-methylbenzo[d][1, 3]dioxol-4-yl)-2,5-difluorobenzyl)-4-fluoro-1-(2-methoxyethyl)-1H-benzo[d]imidazole-6-carboxylic acid], the EC50 in data set [1] turned out to be 2.5 nM. In addition, in data set [2], the “Predicted Hepatic Clearance (Pred. Cl.)” value is 8.83 mL/min/kg.
